Numbers after ± are expanded uncertainties.
Experiment: xn = mol fraction of the nth substance listed
Details: 101 kPa, Liquid

CCc1ccccc1 [ethylbenzene] + CN1CCCC1=O
Details | mass density [kg/m3]
293.15 K, x1 = 0.0854 | 1016.73 ± 0.33
293.15 K, x1 = 0.1254 | 1009.4 ± 0.31
293.15 K, x1 = 0.1847 | 998.68 ± 0.29
293.15 K, x1 = 0.2475 | 987.56 ± 0.33
293.15 K, x1 = 0.3021 | 978.07 ± 0.37
293.15 K, x1 = 0.3654 | 967.23 ± 0.41
293.15 K, x1 = 0.4251 | 957.16 ± 0.45
293.15 K, x1 = 0.4985 | 944.94 ± 0.49
293.15 K, x1 = 0.5471 | 936.92 ± 0.53
293.15 K, x1 = 0.6012 | 928.06 ± 0.56
293.15 K, x1 = 0.6621 | 918.17 ± 0.6
293.15 K, x1 = 0.7214 | 908.66 ± 0.64
293.15 K, x1 = 0.7954 | 897.01 ± 0.69
293.15 K, x1 = 0.8451 | 889.37 ± 0.72
293.15 K, x1 = 0.9214 | 878.1 ± 0.77
293.15 K, x1 = 1 | 867.28 ± 0.81
303.15 K, x1 = 0.0458 | 1014.88 ± 0.32
303.15 K, x1 = 0.1012 | 1004.66 ± 0.29
303.15 K, x1 = 0.1685 | 992.46 ± 0.31
303.15 K, x1 = 0.2314 | 981.29 ± 0.35
303.15 K, x1 = 0.2958 | 970.09 ± 0.39
303.15 K, x1 = 0.3541 | 960.11 ± 0.43
303.15 K, x1 = 0.4217 | 948.71 ± 0.47
303.15 K, x1 = 0.4851 | 938.16 ± 0.51
303.15 K, x1 = 0.5471 | 927.94 ± 0.55
303.15 K, x1 = 0.6012 | 919.09 ± 0.59
303.15 K, x1 = 0.6874 | 905.16 ± 0.64
303.15 K, x1 = 0.7451 | 895.97 ± 0.68
303.15 K, x1 = 0.8124 | 885.46 ± 0.72
303.15 K, x1 = 0.8954 | 872.96 ± 0.77
303.15 K, x1 = 0.9654 | 863.01 ± 0.82
303.15 K, x1 = 1 | 858.36 ± 0.84
313.15 K, x1 = 0.0547 | 1004.11 ± 0.28
313.15 K, x1 = 0.1245 | 991.32 ± 0.3
313.15 K, x1 = 0.1874 | 980.01 ± 0.35
313.15 K, x1 = 0.2451 | 969.83 ± 0.38
313.15 K, x1 = 0.3012 | 960.1 ± 0.42
313.15 K, x1 = 0.3621 | 949.71 ± 0.46
313.15 K, x1 = 0.4321 | 937.95 ± 0.51
313.15 K, x1 = 0.4985 | 926.93 ± 0.55
313.15 K, x1 = 0.5621 | 916.47 ± 0.59
313.15 K, x1 = 0.6251 | 906.2 ± 0.63
313.15 K, x1 = 0.6958 | 894.8 ± 0.68
313.15 K, x1 = 0.7589 | 884.77 ± 0.72
313.15 K, x1 = 0.8245 | 874.57 ± 0.76
313.15 K, x1 = 0.9014 | 863.06 ± 0.8
313.15 K, x1 = 0.9789 | 852.18 ± 0.85
313.15 K, x1 = 1 | 849.38 ± 0.86
323.15 K, x1 = 0.0654 | 993.44 ± 0.29
323.15 K, x1 = 0.1123 | 984.81 ± 0.32
323.15 K, x1 = 0.1785 | 972.82 ± 0.37
323.15 K, x1 = 0.2356 | 962.68 ± 0.4
323.15 K, x1 = 0.2959 | 952.18 ± 0.44
323.15 K, x1 = 0.3575 | 941.62 ± 0.48
323.15 K, x1 = 0.4154 | 931.85 ± 0.52
323.15 K, x1 = 0.4825 | 920.66 ± 0.56
323.15 K, x1 = 0.5415 | 910.92 ± 0.6
323.15 K, x1 = 0.606 | 900.36 ± 0.64
323.15 K, x1 = 0.6784 | 888.62 ± 0.69
323.15 K, x1 = 0.7451 | 877.94 ± 0.73
323.15 K, x1 = 0.8214 | 866 ± 0.78
323.15 K, x1 = 0.8954 | 854.87 ± 0.83
323.15 K, x1 = 0.9548 | 846.41 ± 0.86
323.15 K, x1 = 1 | 840.35 ± 0.89
333.15 K, x1 = 0.0687 | 983.52 ± 0.32
333.15 K, x1 = 0.1254 | 973.12 ± 0.36
333.15 K, x1 = 0.1874 | 961.93 ± 0.4
333.15 K, x1 = 0.2454 | 951.67 ± 0.44
333.15 K, x1 = 0.3021 | 941.83 ± 0.48
333.15 K, x1 = 0.3654 | 931.02 ± 0.52
333.15 K, x1 = 0.4251 | 920.99 ± 0.56
333.15 K, x1 = 0.4784 | 912.12 ± 0.59
333.15 K, x1 = 0.5241 | 904.57 ± 0.62
333.15 K, x1 = 0.5864 | 894.36 ± 0.66
333.15 K, x1 = 0.6478 | 884.37 ± 0.7
333.15 K, x1 = 0.7012 | 875.76 ± 0.73
333.15 K, x1 = 0.7898 | 861.71 ± 0.79
333.15 K, x1 = 0.8457 | 853.12 ± 0.82
333.15 K, x1 = 0.9254 | 841.39 ± 0.87
333.15 K, x1 = 1 | 831.25 ± 0.91
343.15 K, x1 = 0.0784 | 972.86 ± 0.36
343.15 K, x1 = 0.1354 | 962.43 ± 0.4
343.15 K, x1 = 0.1985 | 951.09 ± 0.44
343.15 K, x1 = 0.2415 | 943.48 ± 0.46
343.15 K, x1 = 0.3021 | 932.94 ± 0.5
343.15 K, x1 = 0.3654 | 922.12 ± 0.54
343.15 K, x1 = 0.4251 | 912.06 ± 0.58
343.15 K, x1 = 0.4984 | 899.86 ± 0.63
343.15 K, x1 = 0.5641 | 889.03 ± 0.67
343.15 K, x1 = 0.6214 | 879.66 ± 0.71
343.15 K, x1 = 0.6985 | 867.19 ± 0.76
343.15 K, x1 = 0.7515 | 858.72 ± 0.79
343.15 K, x1 = 0.8125 | 849.17 ± 0.83
343.15 K, x1 = 0.8895 | 837.51 ± 0.88
343.15 K, x1 = 0.9784 | 824.96 ± 0.93
343.15 K, x1 = 1 | 822.11 ± 0.94
353.15 K, x1 = 0.0874 | 962.38 ± 0.39
353.15 K, x1 = 0.1421 | 952.35 ± 0.43
353.15 K, x1 = 0.2032 | 941.34 ± 0.47
353.15 K, x1 = 0.2874 | 926.52 ± 0.52
353.15 K, x1 = 0.3451 | 916.58 ± 0.56
353.15 K, x1 = 0.4021 | 906.9 ± 0.6
353.15 K, x1 = 0.487 | 892.69 ± 0.65
353.15 K, x1 = 0.5474 | 882.68 ± 0.69
353.15 K, x1 = 0.612 | 872.06 ± 0.73
353.15 K, x1 = 0.6874 | 859.79 ± 0.78
353.15 K, x1 = 0.7458 | 850.42 ± 0.81
353.15 K, x1 = 0.8211 | 838.6 ± 0.86
353.15 K, x1 = 0.8954 | 827.4 ± 0.91
353.15 K, x1 = 0.9445 | 820.37 ± 0.93
353.15 K, x1 = 0.98 | 815.52 ± 0.95
353.15 K, x1 = 1 | 812.9 ± 0.97
